Data on seven compounds can be found in ChEMBL document CHEMBL1123455, “Conformational effects on the activity of drugs. 11. Stereostructural models for the direct activation of the alpha- and beta-adrenergic receptor” (J Med Chem, 1986).

Test [1] deals with T1, Adrenergic receptor beta (Homo sapiens) (UniProt P08588+P07550+P13945). To be noted: Cavia porcellus.
Description: Compound was tested for beta adrenergic receptor activity in isolated guinea pig tracheal strip
Test [2] addresses T1, Adrenergic receptor beta (Homo sapiens). The conditions noted are these: Cavia porcellus. This is another data set of the same source.
Description: Compound was tested for beta adrenergic receptor activity in isolated guinea pig atria
For test [3] the target is unchanged. Kind of test: Intrinsic activity beta adrenergic receptor in isolated guinea pig tracheal strip. The conditions noted are these: Cavia porcellus; target entry is the homologue from another species.
Test [4] addresses T2, Adrenergic receptor alpha (Rattus norvegicus) (UniProt P15823+P23944+P43140+P22086+P19328+P22909). Kind of test: Intrinsic activity against alpha-adrenoceptor in isolated rat vas deferens. Format: tissue-based.
For test [5], the target named is T2, Adrenergic receptor alpha (Rattus norvegicus). Kind of test: Intrinsic activity against alpha-adrenoceptor in isolated rat tail artery.
For test [6] the target is unchanged. The conditions noted are these: Artery.
Description: Compound was tested for alpha-adrenoceptor activity in isolated rat tail artery
Test [7] addresses T1, Adrenergic receptor beta (Homo sapiens). To be noted: Cavia porcellus. This is another data set of the same source.
Description: Compound was tested for beta-adrenoceptor activity in isolated guinea pig atria
The target of test [8] is T2, Adrenergic receptor alpha (Rattus norvegicus). To be noted: Vas deferens.
Description: Compound was tested for alpha-adrenoceptor activity in isolated rat vas deferens

The structures appear in SMILES notation.

As to `CC(C)N1CCCC(O)(c2ccc(O)c(O)c2)C1` (centres undefined), the pD2 in test [1] amounted to 8.26; in test [2], 8.14.

With `CC(C)N[C@@H]1CCc2c(ccc(O)c2O)[C@H]1O`, the pD2 stood at 8.41 in test [1] and 7.56 in test [2].

Regarding `Oc1ccc(C2(O)CCCNC2)cc1O` (centres undefined), the Intrinsic activity in test [3] was determined as 0.77; in test [4], 0.95; in test [5], 1.

For the compound `Oc1ccc(C2CNCCO2)cc1O` (centres undefined), the values for the Intrinsic activity in test [4] and in test [5] were 0.91 and 0.92, respectively.

Consider `NC1CCc2c(ccc(O)c2O)[C@H]1O` (some centres undefined), for which the pD2 is 7.49 in test [1] and 6.74 in test [2].

Take `NC[C@H](O)c1ccc(O)c(O)c1`: the pD2 in test [6] was 6.16; in test [7], 6.5; in test [1], 6.04; in test [8] it was 4.96. Further, the Intrinsic activity in test [4] and in test [5] was 1 throughout.

`CC(C)N1CCOC(c2ccc(O)c(O)c2)C1` (centres undefined): the results for the pD2 in test [1] and in test [2] were 6.34 and 5.74, respectively.
